Laboratory results taken from patent US9125855B2, “Prevention of Salmonella recrudescense” (priority 2011, dated 2015).

Legend:
[1] = test system: Salmonella Typhimurium in IPEC-J2 cells; experiment: Intracellular survival assay in IPEC-J2 cells; type: cell-based, porcine
Protocol: The polarized intestinal porcine epithelial (IPEC-J2) cell line is derived from jejunal epithelia isolated from a neonatal piglet (Rhoads et al., 1994; Schierack et al., 2006).
(§1) The number of viable bacteria was assessed 24 hours after infection.

[2] = test system: Salmonella Typhimurium in PAM; experiment: Intracellular survival assay in PAM; type: cell-based, porcine; settings: for intracellular proliferation of Salmonella Typhimurium in PAM: 1 μM
From the text: Porcine pulmonary alveolar macrophages (PAM) were isolated by broncho-alveolar washes from lungs of euthanized 3 to 4 week old piglets, obtained from a Salmonella-negative farm, as described previously (Dom et al., 1992). The isolated cells were pooled and frozen in liquid nitrogen until further use. Prior to seeding the cells, frozen aliquots of approximately 10^8 cells per ml were thawed and washed 3 times in Hank's buffered salt solution with Ca^2+ and Mg^2+ (HBSS+, Gibco) with 10% (v/v) fetal calf serum (FKS, Hyclone, Cramlington, England) at 4° C. Finally, these cells were cultured in Roswell Park Memorial Institute medium (RPMI, Gibco) containing 10% (v/v) FKS, 1% (v/v) L-glutamine (Gibco), 1% (v/v) sodium pyruvate (Gibco), 1% (v/v) MEM non essential amino acids (NEAA, Gibco) and 1% (v/v) penicillin-streptomycin (Gibco).
as §1
Following the IVET screening, the intracellular survival assay was repeated with Salmonella Typhimurium ΔscsA and ΔcbpA and compared to the WT.

[3] = test system: Salmonella Typhimurium in IPEC-J2 cells; experiment: Invasion assay in IPEC-J2 cells; type: cell-based, porcine; settings: for invasion of Salmonella Typhimurium in IPEC-J2 cells: 1 μM
Protocol: (§2) For the invasion assays, PAM and IPEC-J2 cells were seeded in 24-well plates at a density of approximately 5×10^5 cells and 10^5 cells per well, respectively. PAM were allowed to attach for at least 2 hours and IPEC-J2 cells were allowed to grow for at least 24 hours. […] After 24 hours the invasion assay was performed as described by Boyen et al., 2009a. Finally the PAM and IPEC-J2 cells were washed 3 times and lysed for 10 min with 1% (v/v) Triton X-100 or 0.2% (w/v) sodium deocxycholate (Sigma-Aldrich), respectively and 10-fold dilutions were plated on BGA plates.

[4] = test system: Salmonella Typhimurium in PAM; experiment: Invasion assay in PAM; type: cell-based, porcine; settings: for invasion of Salmonella Typhimurium in PAM: 1 μM
Protocol: as §2

[5] = test system: PAM; experiment: Cytotoxicity assay (LDH); type: cell-based, porcine; settings: 0.001 to 100 μM
Protocol: Therefore PAM were seeded in a 96-well microplate at a density of approximately 2×10^5 cells per well and were allowed to attach for at least 2 hours. The IPEC-J2 cells were seeded and allowed to grow for at least 24 hours in a 96-well microplate at a density of approximately 2×10^4 cells per well in Dulbecco's modified Eagle's is medium (DMEM, Gibco) supplemented with 46.5% (v/v) Ham's F12 medium (Gibco), 5% (v/v) FKS and 1% insulin-transferrin-selenium-A supplement (ITS, Gibco).
The LDH test was used in accordance to the manufacturer's instructions and the absorbance was measured at 492 nm using a microplate ELISA reader (Multiscan M S, Thermo Labsystems, Helsinki, Finland).

[6] = test system: Salmonella Typhimurium WT; experiment: Effect of cortisol on the gene expression of Salmonella Typhimurium (microarray); settings: 1 μM, stationary and logarithmic phase culture
Protocol: Two OD600 nm units of each culture were incubated in one-fifth culture volume 5% (v/v) phenol pH 4.3/95% (v/v) ethanol solution for 30 min on ice to stabilize the RNA. Subsequently, the RNA was extracted using the SV Total RNA purification kit (Promega, Leiden, the Netherlands).
Each condition was tested in triplicate and transcriptomic techniques involved Salmonella Typhimurium microarrays constructed at the Institute of Food Research, Norwich, UK, as described previously (Clements et al., 2002; Yberg et al., 2006). The microarray used in this study was the whole-genome SALSA cDNA microarray covering 5080 genes and data analysis was performed as described by Eriksson-Ygberg et al., 2006.

[7] = test system: Salmonella Typhimurium infected PAM; experiment: iTRAQ comparative proteome study of cortisol treated Salmonella infected PAM; type: cell-based, porcine; settings: 1 μM cortisol
From the text: We used a gel-free approach called isobaric tags for relative and absolute quantification (iTRAQ) in which four different isobaric labels are used to tag N-termini and lysine side chains of four different samples with four different isobaric reagents. Upon collision-induced dissociation during MS/MS, the isobaric tags are released, which results in four unique reporter ions that are used to quantify the proteins in the four different samples (Ross et al., 2004).
Sample preparation: PAM were isolated and cultured as described in Verbrugghe et al. (2011), they were seeded in 175 cm^2 cell culture flasks at a density of approximately 5×10^7 cells per flask and were allowed to attach for 2 hours. Subsequently, PAM were washed 3 times with Hank's buffered salt solution with Ca^2+ and Mg^2+ (HBSS+, Gibco) and a gentamicin protection invasion assay was performed as described by Boyen et al. (2009a). Briefly, Salmonella was inoculated into the cell culture flasks at a multiplicity of infection (MOI) of 10:1. To synchronize the infection, the inoculated flasks were centrifuged at 365×g for 10 min and incubated for 30 min at 37° C. under 5% CO2. […] The supernatant was held on ice until further use and the pellet was dissolved and sonicated (6 times 30 sec), using an ultrasonic processor XL 2015 (Misonix, Farmingdale, N.Y., USA), in reagent 3 of the Ready Prep Sequential extraction kit (Bio-Rad, Hercules, Calif., USA). […] Protein concentration was determined using the Bradford Protein Assay (Thermo Fisher Scientific, Rockford, USA) according to the manufacterer's instructions.
Trypsin digest and iTRAQ labeling: Digest and labeling of the samples (100 μg proteins per sample) with iTRAQ reagents was performed according to the manufacturer's guidelines (AB Sciex, Foster City, Calif., USA). Individual samples of cortisol treated or untreated PAM were analyzed in the same run, making paired comparisons possible and minimizing technical variation. […] Each fraction was analyzed by nano LC-MSMS as described by Bijttebier et al. (2009). […]

[8] = test system: Salmonella Typhimurium WT; experiment: Effect of cortisol on the growth of Salmonella Typhimurium; settings: 0.001 to 100 μM, LB broth, 24 hours
Protocol: Therefore, Salmonella Typhimurium was grown in LB broth whether or not supplemented with cortisol. The number of CFU per ml was determined at different time points by titration of 10-fold dilutions of the bacterial suspensions on BGA. After incubation for 24 hours at 37° C., the number of colonies was counted.

[9] = test system: Salmonella Typhimurium in PAM; settings: 1 μM, 24 hours; cited from earlier work
[10] = test system: Salmonella Typhimurium in PAM; experiment: Contribution of the cytoskeleton to cortisol induced intracellular proliferation in PAM; type: cell-based, porcine; settings: 2 μM cytochalasin D and/or 20 μM nocodazole, 1 μM cortisol, 24 hours
Protocol: Therefore, PAM is were seeded in 24-well plates at a density of approximately 5×10^5 cells per well, allowed to attach for 2 hours and infected with Salmonella, as described in the iTRAQ analysis.

[11] = test system: pig; settings: 2 mg dexamethasone per kg body weight; cited from earlier work

SMILES: CNC[C@H](O)c1ccc(O)c(O)c1 [Epinephrine, epinephrine]
- intracellular proliferation of Salmonella Typhimurium in IPEC-J2 cells ([1]; 1 μM): did neither affect
- intracellular proliferation of Salmonella Typhimurium in PAM [2]: did neither affect
- invasion of Salmonella Typhimurium in IPEC-J2 cells [3]: did neither affect
- invasion of Salmonella Typhimurium in PAM [4]: did neither affect

SMILES: C[C@]12CCC(=O)C=C1CC[C@@H]1[C@@H]2[C@@H](O)C[C@@]2(C)[C@H]1CC[C@]2(O)C(=O)CO [cortisol, Cortisol]
- effect on cell viability [5]: did not exert a notable effect
- gene expression levels by microarray analysis [6]: did not significantly affect
- number of proteins more abundant in cortisol treated PAM [7]: 21
- number of proteins with higher levels in untreated PAM [7]: Two
- number of proteins with recurrent expressional differences, treated vs untreated infected PAM [7]: 23
- intracellular proliferation of Salmonella Typhimurium in IPEC-J2 cells ([1]; 0.001 to 100 μM): did neither affect
- intracellular proliferation of Salmonella Typhimurium in treated PAM in comparison to non-treated cells ([2]; 24 hours): higher
- concentration leading to a significant dose-dependent increase of the number of intracellular bacteria ([2]; PAM, 24 hours): 100 nM
- growth of Salmonella [8]: did not affect
- invasion in IPEC-J2 cells ([3]; 0.001 to 100 μM): did neither affect
- number of intracellular Salmonella Typhimurium bacteria compared to untreated PAM [9]: significant increase
- invasion in PAM ([4]; 0.001 to 100 μM): did neither affect

SMILES: C=C1[C@@H](C)[C@H]2[C@H](Cc3ccccc3)NC(=O)[C@]23[C@H](OC(C)=O)/C=C/[C@@](C)(O)C(=O)[C@@H](C)C/C=C/[C@H]3[C@@H]1O [cytochalasin D]
- cortisol induced increased survival of the bacterium in PAM [10]: inhibition

SMILES: C[C@@H]1C[C@H]2[C@@H]3CCC4=CC(=O)C=C[C@]4(C)[C@@]3(F)[C@@H](O)C[C@]2(C)[C@@]1(O)C(=O)CO [dexamethasone]
- effect on cell viability [5]: did not exert a notable effect
- immunosuppression of the pig [11]: does not cause immunosuppression

SMILES: NCCc1ccc(O)c(O)c1 [dopamine]
- intracellular proliferation of Salmonella Typhimurium in IPEC-J2 cells ([1]; 1 μM): did neither affect
- intracellular proliferation of Salmonella Typhimurium in PAM [2]: did neither affect
- invasion of Salmonella Typhimurium in IPEC-J2 cells [3]: did neither affect
- invasion of Salmonella Typhimurium in PAM [4]: did neither affect

SMILES: COC(=O)Nc1nc2ccc(C(=O)c3cccs3)cc2[nH]1 [nocodazole]
- cortisol induced increased survival of the bacterium in PAM [10]: inhibition

SMILES: NC[C@H](O)c1ccc(O)c(O)c1 [norepinephrine]
- intracellular proliferation of Salmonella Typhimurium in IPEC-J2 cells ([1]; 1 μM): did neither affect
- intracellular proliferation of Salmonella Typhimurium in PAM [2]: did neither affect
- invasion of Salmonella Typhimurium in IPEC-J2 cells [3]: did neither affect
- invasion of Salmonella Typhimurium in PAM [4]: did neither affect
